Patent publication US7320979B2, “N-[(piperazinyl)hetaryl]arylsulfonamide compounds” (Abbott GmbH & Co. KG., priority 2003, dated 2008)
Structures can show the parent of a compound that is named as a salt.

Key:
[1] = target: T1, human dopamine D2L receptors (long isoform) (Homo sapiens, UniProt P14416); experiment: Dopamine D2L receptor binding, displacement of [125I] iodospiperone; details: footnote: ratio of the Ki values of the D3 and D2L binding tests
T1 construct: expressed in transfected cells; host or cells: HEK-293
T1 sequence (P14416 whole entry, canonical isoform): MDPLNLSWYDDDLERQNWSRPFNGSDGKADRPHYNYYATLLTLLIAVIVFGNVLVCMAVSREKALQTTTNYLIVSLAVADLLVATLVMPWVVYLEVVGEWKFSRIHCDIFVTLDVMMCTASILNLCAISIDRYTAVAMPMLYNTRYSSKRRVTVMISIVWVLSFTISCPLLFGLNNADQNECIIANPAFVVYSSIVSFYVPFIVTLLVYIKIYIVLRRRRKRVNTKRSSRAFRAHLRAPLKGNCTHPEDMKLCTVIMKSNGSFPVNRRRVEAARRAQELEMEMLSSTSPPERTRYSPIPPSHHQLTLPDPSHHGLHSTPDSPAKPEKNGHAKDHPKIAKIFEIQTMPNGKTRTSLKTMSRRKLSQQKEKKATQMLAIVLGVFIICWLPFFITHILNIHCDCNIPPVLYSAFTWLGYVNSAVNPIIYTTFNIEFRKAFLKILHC
Experimental: (§1) The substance to be tested was either dissolved in methanol/Chremophor® (BASF-AG) or in dimethyl sulfoxide and then diluted with water to the desired concentration.
(§2) Each assay mixture was run in triplicate.
The incubation buffer contained 50 mM tris, 120 mM NaCl, 5 mM KCl, 2 mM CaCl2, 2 mM MgCl2 and 0.1% bovine serum albumin. The buffer was adjusted to pH 7.4 with HCl.
(§3) After having been incubated at 25° C. for 60 minutes, the assay mixtures were filtered through a Whatman GF/B glass fiber filter under vacuum using a cell collecting device. The filters were transferred to scintillation viols using a filter transfer system. After 4 ml of Ultima Gold® (Packard) have been added, the samples were shaken for one hour and the radioactivity was then counted in a Beta-Counter (Packard, Tricarb 2000 or 2200CA). The cpm values were converted into dpm using a standard quench series and the program belonging to the instrument.
(§4) The inhibition curves were analyzed by means of iterative nonlinear regression analysis using the Statistical Analysis System (SAS) which is similar to the “LIGAND” program described by Munson and Rodbard.

[2] = target: T2, human dopamine D3 receptors (Homo sapiens, UniProt P35462); experiment: Dopamine D3 receptor binding, displacement of [125I]-iodosulpride; details: membranes of HEK-293 cells stably expressing human D3 receptors; 0.1 nM [125I]-iodosulpride; 25° C., 60 minutes
T2 construct: expressed in transfected cells; host or cells: HEK-293
T2 sequence (P35462 whole entry): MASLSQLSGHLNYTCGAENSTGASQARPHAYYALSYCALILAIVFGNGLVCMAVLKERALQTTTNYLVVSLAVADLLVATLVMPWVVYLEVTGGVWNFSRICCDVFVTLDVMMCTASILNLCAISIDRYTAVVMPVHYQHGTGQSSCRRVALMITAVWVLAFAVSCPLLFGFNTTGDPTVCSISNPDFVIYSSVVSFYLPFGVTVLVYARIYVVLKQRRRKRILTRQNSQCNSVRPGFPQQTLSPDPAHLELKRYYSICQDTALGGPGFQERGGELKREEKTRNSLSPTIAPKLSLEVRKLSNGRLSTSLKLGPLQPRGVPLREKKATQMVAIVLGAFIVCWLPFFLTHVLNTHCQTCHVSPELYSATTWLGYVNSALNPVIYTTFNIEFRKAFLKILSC
Experimental: as §1, §2
The incubation buffer contained 50 mM tris, 120 mM NaCl, 5 mM KCl, 2 mM CaCl2, 2 mM MgCl2 and 0.1% bovine serum albumin, 10 μM […] and 0.1% ascorbic acid (prepared fresh daily). The buffer was adjusted to pH 7.4 with HCl.
as §3, §4

**Q.** `C=CCN1CCN(c2ccc(NS(=O)(=O)c3ccc(C(C)C)cc3)cn2)CC1C.Cl` (racemic) [Example 13, N-[6-(4-Allyl-3-methylpiperazin-1-yl)pyridin-3-yl]-4-isopropylbenzenesulfonamide hydrochloride] was tested. Which “Selectivity vs. D2L” value [1] did it give?
**A.** 131

**Q.** What about the Ki [2] of the same compound?
**A.** 3.6 nM

**Q.** How did the “Selectivity vs. D2L” value [1] turn out when `CCCN1CCN(c2ccc(NS(=O)(=O)c3ccc(C(C)C)cc3)cn2)CC1C.Cl` (racemic) [Example 14, 4-Isopropyl-N-[6-(3-methyl-4-propylpiperazin-1-yl)pyridin-3-yl]benzenesulfonamide hydrochloride] was run?
**A.** 81

**Q.** What about the Ki [2] of the same compound?
**A.** 2.5 nM

**Q.** What does the source list for `C=CCN1CCN(c2ccc(NS(=O)(=O)c3ccc(C(C)C)cc3)cn2)CC1` [Example 1, N-[6-(4-Allylpiperazin-1-yl)pyridin-3-yl]-4-isopropylbenzenesulfonamide]?
**A.** Selectivity vs. D2L [1]: 232; Ki [2]: 3 nM

**Q.** `C=CCN1CCN(c2ccc(NS(=O)(=O)c3ccc(CCC)cc3)cn2)CC1` [Example 2, N-[6-(4-Allylpiperazin-1-yl)pyridin-3-yl]-4-propylbenzenesulfonamide] was tested. Which “Selectivity vs. D2L” value [1] did it give?
**A.** 25

**Q.** What about the Ki [2] of the same compound?
**A.** 5.5 nM

**Q.** For `C=CCN1CCN(c2ccc(NS(=O)(=O)c3ccc(CCCC)cc3)cn2)CC1` [Example 3, N-[6-(4-Allylpiperazin-1-yl)pyridin-3-yl]-4-butylbenzenesulfonamide], which “Selectivity vs. D2L” value [1] is on record?
**A.** 15

**Q.** And the Ki [2]?
**A.** 5.9 nM

**Q.** How did the “Selectivity vs. D2L” value [1] turn out when `C=CCN1CCN(c2ccc(NS(=O)(=O)c3ccc(CC)cc3)cn2)CC1.Cl` [Example 5, N-[6-(4-Allylpiperazin-1-yl)pyridin-3-yl]-4-ethylbenzenesulfonamide hydrochloride] was run?
**A.** 108

**Q.** And the Ki [2]?
**A.** 11.4 nM

**Q.** With `C=CCN1CCN(c2ccc(NS(=O)(=O)c3ccc(C=C)cc3)cn2)CC1.Cl` [Example 6, N-[6-(4-Allylpiperazin-1-yl)pyridin-3-yl]-4-vinylbenzenesulfonamide hydrochloride] as the compound, how does the “Selectivity vs. D2L” value [1] read?
**A.** 169

**Q.** And the Ki [2]?
**A.** 9.7 nM

**Q.** What does the source list for `CC(C)c1ccc(S(=O)(=O)Nc2ccc(N3CCNCC3)nc2)cc1` [Example 7, 4-Isopropyl-N-(6-piperazin-1-ylpyridin-3-yl)benzenesulfonamide]?
**A.** Selectivity vs. D2L [1]: 68; Ki [2]: 11.4 nM

**Q.** `CC(C)c1ccc(S(=O)(=O)Nc2ccc(N3CCN(C)CC3)nc2)cc1` [Example 10, 4-Isopropyl-N-[6-(4-methylpiperazin-1-yl)pyridin-3-yl]benzenesulfonamide] was tested. Which “Selectivity vs. D2L” value [1] did it give?
**A.** 93

**Q.** What about the Ki [2] of the same compound?
**A.** 7.5 nM

**Q.** `CCN1CCN(c2ccc(NS(=O)(=O)c3ccc(C(C)C)cc3)cn2)CC1.Cl` [Example 11, N-[6-(4-Ethylpiperazin-1-yl)pyridin-3-yl]-4-isopropylbenzenesulfonamide hydrochloride] was tested. Which “Selectivity vs. D2L” value [1] did it give?
**A.** 77

**Q.** And the Ki [2]?
**A.** 6.2 nM

**Q.** With `C=CCN1CCN(c2ccc(NS(=O)(=O)c3ccc(C(C)C)cc3)cn2)C[C@@H]1C` [Example 13a, N-{6-[4-Allyl-(3S)-methylpiperazin-1-yl]pyridin-3-yl}-4-isopropylbenzenesulfonamide] as the compound, how does the “Selectivity vs. D2L” value [1] read?
**A.** 96

**Q.** And the Ki [2]?
**A.** 2.7 nM

**Q.** Which results are given for `CCCN1CCN(c2ccc(NS(=O)(=O)c3ccc(C(C)C)cc3)cn2)C[C@@H]1C` [Example 14a, 4-Isopropyl-N-{6-[(3S)-methyl-4-propylpiperazin-1-yl]pyridin-3-yl}benzenesulfonamide]?
**A.** Selectivity vs. D2L [1]: 184; Ki [2]: 1.5 nM

**Q.** What does the source list for `C=CCN1CCN(c2ncc(NS(=O)(=O)c3ccc(C(C)C)cc3)cn2)CC1` [Example 16, N-[2-(4-Allylpiperazin-1-yl)pyrimidin-5-yl]-4-isopropylbenzenesulfonamide]?
**A.** Selectivity vs. D2L [1]: 131; Ki [2]: 3.8 nM

**Q.** How did the “Selectivity vs. D2L” value [1] turn out when `CCCN1CCN(c2ncc(NS(=O)(=O)c3ccc(C(C)C)cc3)cn2)CC1.Cl` [Example 17, 4-Isopropyl-N-[2-(4-propylpiperazin-1-yl)pyrimidin-5-yl]benzenesulfonamide hydrochloride] was run?
**A.** 148

**Q.** What about the Ki [2] of the same compound?
**A.** 8.2 nM

**Q.** What does the source list for `C=CCN1CCN(c2ccc(NS(=O)(=O)c3ccc(Br)cc3)cn2)CC1.Cl` [Example 19, N-[2-(4-Allylpiperazin-1-yl)pyridin-5-yl]-4-bromobenzenesulfonamide hydrochloride]?
**A.** Selectivity vs. D2L [1]: 91; Ki [2]: 36.9 nM

**Q.** What does the source list for `CCCN1C(C)CN(c2ncccc2NS(=O)(=O)c2ccc(C(C)C)cc2)CC1C.O=C(O)C(F)(F)F` (stereo not shown) [Example 22, 4-Isopropyl-N-[2-(3,5-dimethyl-4-propylpiperazin-1-yl)pyridin-3-yl]benzenesulfonamide trifluoroacetate]?
**A.** Selectivity vs. D2L [1]: 22; Ki [2]: 21.9 nM

**Q.** Which “Selectivity vs. D2L” value [1] does the source give for `C=CCN1C(C)CN(c2ccc(NS(=O)(=O)c3ccc(C(C)C)cc3)cn2)CC1C.Cl` (stereo not shown) [Example 24, N-[6-(4-Allyl-3,5-dimethylpiperazin-1-yl)pyridin-3-yl]-4-isopropylbenzenesulfonamide hydrochloride] here?
**A.** 47

**Q.** What about the Ki [2] of the same compound?
**A.** 25 nM

**Q.** For `CCCN1CCN(c2ccc(NS(=O)(=O)c3ccc(Br)cc3)cn2)CC1` [Example 27, 4-Bromo-N-[6-(4-propylpiperazin-1-yl)pyridin-3-yl]-benzenesulfonamide], which “Selectivity vs. D2L” value [1] is on record?
**A.** 55

**Q.** And the Ki [2]?
**A.** 21.4 nM

**Q.** `CCCN1CCN(c2ccc(NS(=O)(=O)c3ccc(Cl)cc3)cn2)CC1` [Example 28, 4-Chloro-N-[6-(4-propylpiperazin-1yl)pyridin-3-yl]-benzenesulfonamide] was tested. Which “Selectivity vs. D2L” value [1] did it give?
**A.** 67

**Q.** What about the Ki [2] of the same compound?
**A.** 25.3 nM

**Q.** For `CCCN1CC2CC1CN2c1ccc(NS(=O)(=O)c2ccc(C(C)C)cc2)cn1.Cl` (stereo not shown) [Example 29, 4-Isopropyl-N-[6-(5-propyl-2,5-diazabicyclo[2.2.1]hept-2-yl)pyridin-3-yl]-benzenesulfonamide hydrochloride], which “Selectivity vs. D2L” value [1] is on record?
**A.** 31

**Q.** And the Ki [2]?
**A.** 16.9 nM

**Q.** What does the source list for `C=CCN1CC2CC1CN2c1ccc(NS(=O)(=O)c2ccc(C(C)C)cc2)cn1.Cl` (stereo not shown) [Example 30, N-[6-(5-Allyl-2,5-diazabicyclo[2.2.1]hept-2-yl)pyridin-3-yl]-4-isopropylbenzenesulfonamide hydrochloride]?
**A.** Selectivity vs. D2L [1]: 17; Ki [2]: 11.1 nM

**Q.** `C=Cc1ccc(S(=O)(=O)Nc2ccc(N3CCN(CCC)CC3)nc2)cc1.Cl` [Example 31, N-[6-(4-Propylpiperazin-1-yl)pyridin-3-yl]-4-vinylbenzenesulfonamide hydrochloride] was tested. Which “Selectivity vs. D2L” value [1] did it give?
**A.** 96

**Q.** What about the Ki [2] of the same compound?
**A.** 14 nM

**Q.** Which “Selectivity vs. D2L” value [1] does the source give for `CC(C)c1ccc(S(=O)(=O)Nc2ccc(N3CCN(CCCF)CC3)nc2)cc1.Cl` [Example 32, N-{6-[4-(3-Fluoropropyl)piperazin-1-yl]pyridin-3-yl}-4-isopropylbenzenesulfonamide hydrochloride] here?
**A.** 74

**Q.** And the Ki [2]?
**A.** 17 nM

**Q.** What does the source list for `CCCN1CCN(c2ccc(NS(=O)(=O)c3ccc(CC)cc3)cn2)CC1.Cl` [Example 34, 4-Ethyl-N-[6-(4-propylpiperazin-1-yl)pyridin-3-yl]-benzenesulfonamide hydrochloride]?
**A.** Selectivity vs. D2L [1]: 73; Ki [2]: 9.6 nM

**Q.** `C=CCN1CCN(c2ccc(NS(=O)(=O)c3ccc(Cl)cc3)cn2)CC1.Cl` [Example 35, N-[6-(4-Allylpiperazin-1-yl)pyridin-3-yl]-4-chlorobenzenesulfonamide hydrochloride] was tested. Which “Selectivity vs. D2L” value [1] did it give?
**A.** 51

**Q.** And the Ki [2]?
**A.** 26.6 nM

**Q.** For `Cc1cc(N2CCNCC2)ncc1NS(=O)(=O)c1ccc(C(C)C)cc1.Cl` [Example 36, 4-Isopropyl-N-(4-methyl-6-piperazin-1-ylpyridin-3-yl)-benzenesulfonamide hydrochloride], which “Selectivity vs. D2L” value [1] is on record?
**A.** 50

**Q.** What about the Ki [2] of the same compound?
**A.** 5.4 nM

**Q.** `C=CCN1CCN(c2cc(C)c(NS(=O)(=O)c3ccc(C(C)C)cc3)cn2)CC1.Cl` [Example 37, N-[6-(4-Allylpiperazin-1-yl)-4-methylpyridin-3-yl]-4-isopropylbenzenesulfonamide hydrochloride] was tested. Which “Selectivity vs. D2L” value [1] did it give?
**A.** 86

**Q.** And the Ki [2]?
**A.** 2.7 nM

**Q.** Which results are given for `CCCN1CCN(c2cc(C)c(NS(=O)(=O)c3ccc(C(C)C)cc3)cn2)CC1.Cl` [Example 38, 4-Isopropyl-N-[4-methyl-6-(4-propylpiperazin-1-yl)pyridin-3-yl]-benzenesulfonamide hydrochloride]?
**A.** Selectivity vs. D2L [1]: 22; Ki [2]: 17.2 nM

**Q.** What does the source list for `C=Cc1ccc(S(=O)(=O)Nc2cnc(N3CCN(CCC)CC3)cc2C)cc1.Cl` [Example 39, N-[4-Methyl-6-(4-propylpiperazin-1-yl)pyridin-3-yl]-4-vinylbenzenesulfonamide hydrochloride]?
**A.** Selectivity vs. D2L [1]: 30; Ki [2]: 34.6 nM

**Q.** What does the source list for `C=CCN1CCN(c2ccc(NS(=O)(=O)c3ccc(C(C)C)cc3)c(C)n2)CC1` [Example 43]?
**A.** Selectivity vs. D2L [1]: 80; Ki [2]: 1.1 nM

**Q.** With `C=CCN1CCN(c2ccc(NS(=O)(=O)c3ccc(C(C)(C)C)cc3)c(C)n2)CC1` [Example 44, 4-tert-Butyl-[N-[2-(4-allylpiperazin-1-yl)-6-methylpyridin-5-yl]-benzenesulfonamide, fumarate] as the compound, how does the “Selectivity vs. D2L” value [1] read?
**A.** 41

**Q.** And the Ki [2]?
**A.** 1.4 nM

**Q.** `C=CCN1CCN(c2ccc(NS(=O)(=O)c3ccc(C(C)(C)CC)cc3)c(C)n2)CC1` [Example 45, 4-tert-pentyl-[N-[2-(4-Allylpiperazin-1-yl)-6-methylpyridin-5-yl]-benzenesulfonamide, Fumarate] was tested. Which “Selectivity vs. D2L” value [1] did it give?
**A.** 24

**Q.** And the Ki [2]?
**A.** 1.4 nM
